Results reported in PubChem BioAssay (NCI).
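Cells were grown in 96-well plates and exposed to each compound for 48 hours at five concentrations; endpoints were interpolated linearly between bracketing concentrations, or set to the highest concentration if not reached. TGI is the concentration that stops growth completely.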

Assays:
Experiment in all cases: NCI-60 cell line screen, 48 h
786-0 renal = system: 786-0 renal
COLO 205 colon = system: COLO 205 colon
EKVX NSCLC = system: EKVX NSCLC
HS 578T breast = system: HS 578T breast
K-562 leukemia = system: K-562 leukemia
KM12 colon = system: KM12 colon
NCI/ADR-RES ovarian = system: NCI/ADR-RES ovarian
RXF 393 renal = system: RXF 393 renal
SF-295 CNS = system: SF-295 CNS
SK-MEL-2 melanoma = system: SK-MEL-2 melanoma
SK-OV-3 ovarian = system: SK-OV-3 ovarian
SN12C renal = system: SN12C renal
SNB-75 CNS = system: SNB-75 CNS
TK-10 renal = system: TK-10 renal
UACC-257 melanoma = system: UACC-257 melanoma
HCC-2998 colon = system: HCC-2998 colon

Compound | TGI (786-0 renal) [µM] | TGI (COLO 205 colon) [µM] | TGI (EKVX NSCLC) [µM] | TGI (HS 578T breast) [µM] | TGI (K-562 leukemia) [µM] | TGI (KM12 colon) [µM] | TGI (NCI/ADR-RES ovarian) [µM] | TGI (RXF 393 renal) [µM] | TGI (SF-295 CNS) [µM] | TGI (SK-MEL-2 melanoma) [µM] | TGI (SK-OV-3 ovarian) [µM] | TGI (SN12C renal) [µM] | TGI (SNB-75 CNS) [µM] | TGI (TK-10 renal) [µM] | TGI (UACC-257 melanoma) [µM] | TGI (HCC-2998 colon) [µM]
Nc1nc2c(ncn2Cc2ccc(CO)cc2)c(=O)[nH]1 | > 100 | > 100 | > 100 | > 100 | > 100 | > 100 | > 100 | > 100 | > 100 | > 100 | > 100 | > 100 | > 100 | > 100 | > 100 | 
CN(CCN(C)C(=S)NN)C(=S)NN | > 100 | > 100 | > 100 | > 100 |  | > 100 |  |  | > 100 | > 100 | > 100 | > 100 | > 100 |  | > 100 | > 100
COc1ccc(/C=N/n2c(-c3ccccc3)n[nH]c2=O)cc1 | > 100 | > 100 | > 100 | 93.7 | > 100 | > 100 | > 100 |  | > 100 | > 100 | > 100 | > 100 | > 100 |  | > 100 | > 100
CC(C)C[C@H]1[C@@H](OCc2ccccc2)COS(=O)N1[C@H](C)c1ccccc1 (stereo partly specified) | 36.1 | 30.4 | > 100 | 38.6 | 35.9 | 40.9 | > 100 | 32.1 | 34.3 | 36.1 | 78 | 40.1 | > 100 | > 100 | > 100 | 
Cc1ccc(C(=O)N/N=C(\N=Nc2ccccc2[N+](=O)[O-])c2ccc(N(C)C)cc2)cc1 | > 100 | > 100 | > 100 | > 100 | > 100 | > 100 | > 100 |  | > 100 | > 100 | > 100 | > 100 |  | > 100 | > 100 | > 100
CC(C)C1=C(Cc2ccccc2)C(=O)O/C1=C\c1cc(Cl)c(O)c(Cl)c1 | 32.1 | 35.3 | 65.1 | 67.7 | 40.5 | 35.1 | 52.3 | 30.5 | 30.8 |  | 39.7 | 35.6 | 36.8 | 55.1 | 32.2 | 42.3
COC(=O)c1c(O)ccc2c1c1c(n2Cc2ccc(Cl)cc2Cl)C(=O)c2ccccc2C1 | > 100 | > 100 |  | > 100 | > 100 | > 100 | > 100 | 78.8 |  | > 100 | > 100 | 55.2 | 58.7 | > 100 | > 100 | 
COc1cccc2c1C(=O)c1c(O)c3c(c(O)c1C2=O)C[C@@](O)(C(=O)CO)C[C@@H]3OC1CC(N)C(OC)C(C)O1 (stereo partly specified) | 18.2 | 1.94 | 9.35 | 1.14 | 0.0483 | 0.931 |  | 0.825 | 1.98 | 0.407 | 4.41 | 0.644 | 0.346 | 36.6 | 1.34 | 0.763
CCOC(=O)c1ccc(NC(=O)O/N=C(/Cl)CCl)cc1 | > 100 | > 100 | > 100 | > 100 | > 100 | > 100 | > 100 |  | > 100 | > 100 | > 100 | > 100 | > 100 | > 100 | > 100 | 
CC(C)(C)[Si](C)(C)OC1/C(=C/C#N)C(n2ccc(=O)[nH]c2=O)OC1CO (stereo unspecified) | > 100 | > 100 |  |  | > 100 | > 100 | > 100 | > 100 | > 100 | > 100 | > 100 |  |  | > 100 |  | 
CCSc1[nH]c(Nc2nc(-c3ccccc3)n(-c3ccccc3)n2)c(C(N)=O)c1C(N)=O | > 10 | > 10 | > 10 |  | > 10 | > 10 |  | > 10 | > 10 |  | > 10 | > 10 | > 10 | > 10 | > 10 | > 10
O=c1cc(-c2ccccc2)[nH]c2c(S)cccc12 | > 100 | > 100 |  | > 100 | > 100 | > 100 | > 100 | > 100 | > 100 |  | > 100 | > 100 | > 100 | > 100 | > 100 | > 100
O=C1C[C@H]2[C@@H](O1)[C@@H](O)CN1C(=O)c3ccccc3[C@H]21 | > 100 | > 100 | > 100 |  | > 100 | > 100 | > 100 | > 100 | > 100 | > 100 | > 100 | > 100 | > 100 | > 100 | > 100 | > 100
CSc1nncc2[nH]c(C)nc12 | > 100 | > 100 | > 100 |  | > 100 | > 100 | > 100 |  | > 100 | > 100 | > 100 | > 100 | > 100 | > 100 | > 100 | > 100
CC(C)(C)NC(=O)N1N=C(c2ccccc2)C1c1ccccc1 (stereo unspecified) | 32 | > 100 | > 100 | > 100 |  | > 100 | > 100 | 36.6 | > 100 |  | > 100 | > 100 | > 100 | > 100 | > 100 | > 100
O=C(O)c1cccnc1 | > 100 | > 100 | > 100 | > 100 | > 100 | > 100 | > 100 |  | > 100 |  |  | > 100 | > 100 | > 100 | > 100 | > 100

Compound | TGI (786-0 renal) [µM] | TGI (COLO 205 colon) [µM] | TGI (EKVX NSCLC) [µM] | TGI (HS 578T breast) [µM] | TGI (K-562 leukemia) [µM] | TGI (KM12 colon) [µM] | TGI (NCI/ADR-RES ovarian) [µM] | TGI (RXF 393 renal) [µM] | TGI (SF-295 CNS) [µM] | TGI (SK-MEL-2 melanoma) [µM] | TGI (SK-OV-3 ovarian) [µM] | TGI (SN12C renal) [µM] | TGI (SNB-75 CNS) [µM] | TGI (TK-10 renal) [µM] | TGI (UACC-257 melanoma) [µM] | TGI (HCC-2998 colon) [µM]
COc1cc2c(cc1O)C1C(O)C(O)C=C3CCN(C2)C31 (stereo unspecified) | 11.9 | 3.14 | 14.8 |  | > 100 | 11 |  | 5.42 | 17.6 | 5.74 | 22.9 | 14.6 | 9.69 | 11.7 | 12.2 | 8.44
N#C/C(N)=C(\C#N)NC=NCc1ccccc1 | > 100 | > 100 | > 100 | > 100 | > 100 | > 100 | > 100 |  | > 100 | > 100 | > 100 | > 100 | > 100 | > 100 | > 100 | > 100
COc1ccc(C(=O)/C=C/c2ccncc2)cc1OC | 23.5 | 29.1 | 30.5 | 36.7 | 6.11 |  | 42.7 | 25.7 | 29.9 | 30.8 | 30.9 | 29.2 | 26.3 | 30 | 25.5 | 
COc1ccc(CCN=C2OCc3ccccc32)cc1OC | > 100 | > 100 | > 100 | > 100 | > 100 | > 100 | > 100 |  | > 100 | > 100 | > 100 | > 100 | > 100 | > 100 | > 100 | > 100
COc1ccc(CN(Cc2ccc(OC)cc2)C(=O)CC2(O)C=CCC2)cc1 (stereo unspecified) | > 100 | > 100 | > 100 | > 100 | > 100 | > 100 | > 100 |  | > 100 | > 100 | > 100 | > 100 | > 100 | > 100 | > 100 | > 100
COc1ccc(-c2nc(SCC(=O)N/N=C/c3ccc(O)c(OC)c3)[nH]c2-c2ccc(OC)cc2)cc1 | 42 | 34.4 | > 100 |  | 57.8 | > 100 | > 100 | 36.5 | 46.5 | 33.5 | > 100 | 41.1 | > 100 | > 100 | 69.5 | 32.3
CC(=O)Nc1ccc2cc(C)c(=O)[nH]c2n1 | > 100 | > 100 | > 100 | > 100 | > 100 | > 100 | > 100 | > 100 | > 100 | > 100 | > 100 | > 100 | > 100 | > 100 | > 100 | 
O=C(NS(=O)(=O)OCC(Cl)(Cl)Cl)SCCC(F)(F)C(F)(F)C(F)(F)C(F)(F)C(F)(F)C(F)(F)F | > 100 | 33.5 | 35.5 | 42.1 | > 100 | 43.5 | 48.1 | 44.6 | 38.9 | 66.8 | 32.1 | > 100 | 64.6 | 62.6 | > 100 | 
COc1ccc(C(O)c2nccn2C)c(OC)c1 (stereo unspecified) | > 100 | > 100 | > 100 |  | > 100 | > 100 | > 100 | > 100 | > 100 | > 100 | > 100 | > 100 | > 100 | > 100 | > 100 | > 100
CSc1ncnc2c1cnn2CCCCO | > 100 | > 100 | > 100 | > 100 | > 100 | > 100 |  | > 100 | > 100 | > 100 | > 100 | > 100 |  | > 100 | > 100 | > 100
CC[C@]1(Cc2ccc(OC)c(OC)c2)[C@@H]2C[C@@H](C3OCCO3)ON2O[C@H](OC2CCCC2(c2ccccc2)c2ccccc2)[C@@H]1OC(C)=O (stereo partly specified) | 41.1 | 69.3 | 44.6 |  | 39.1 | 29.5 | 53.9 |  | 39.1 | 29.5 | > 100 | > 100 | 46.3 | > 100 | 43.9 | 
C[C@@H]1C[C@](O)([C@@H](C)Cl)C(=O)O[C@@H]2CCN3CC=C(COC(=O)[C@]1(C)O)[C@H]23 | > 100 | > 100 | > 100 | > 100 | > 100 | > 100 | > 100 |  | > 100 | > 100 | > 100 |  | > 100 | > 100 | > 100 | > 100
O=C(/C=C/C=C/c1ccccc1)c1ccc2c(c1)CCCC2 | > 100 | > 100 | > 100 | 30.4 | > 100 | > 100 | 65.8 |  | > 100 | > 100 | > 100 | > 100 |  | > 100 | > 100 | 63.3
CC#C[P+](c1ccccc1)(c1ccccc1)c1ccccc1 | 10.7 | 2.77 | 22.5 |  | 11.8 | 11.3 |  | 18.9 | 9.15 | 5.75 | 38.5 | 4.13 | 12 | 15.7 | 9.59 | 14.5
O=C1/C(=C/c2ccccc2)NC(=S)N1CN1CCOCC1 | > 100 | > 100 | > 100 | > 100 | > 100 | > 100 | > 100 |  | > 100 | > 100 | > 100 | > 100 | > 100 | > 100 | > 100 | 
O=C(NC(CO)Cc1ccc(Oc2cc(CC(CO)NC(=O)OCc3ccccc3)ccc2OC(=O)OCc2ccccc2)cc1)OCc1ccccc1 (stereo unspecified) | > 100 | 36 | 47.8 | 28.4 | 46.7 | 50.4 | > 100 |  | 35.2 | 58.3 | 69.8 | > 100 | 51.1 | 54.1 | 29 | 30.5
